Key:
[1] = Conversion of compounds in human plasma; type: in vitro ADME; conditions: for Observed metabolite, Incubation in human plasma: 1 μM test compound, 37° C., 0-6 hr, nd: not detected; for appearance of compound (I) / conversion in vitro: incubation in human plasma and/or human hepatocytes
Procedure: Frozen human plasma was thawed and then centrifuged at 3200×g for 5 min to remove debris. The pH value of the supernatant was then measured and adjusted to 7.4±0.1 by adding 1% phosphoric acid or 1 N sodium hydroxide. 2 μL of dosing solution (50 μM for test compounds and 100 μM for positive control (propantheline bromide)) was mixed with 98 μL of blank plasma to achieve 1 μM test compound and 2 μM positive control of final concentration. The mixture was incubated, and samples were withdrawn from the incubations at the pre-determined time points of 0, 0.5, 1, 2, 4 and 6 hr (in duplicate) at 37° C. in water bath. At each corresponding time point 10 μL inhibitor and 20 μL ascorbic acid and 2 μL formic acid (20%) are added, and then added 400 μL of “stop solution” (200 ng/mL tolbutamide plus 200 ng/mL labetalol in 50% ACN/MeOH) to precipitate protein. The substance was mixed thoroughly and thereafter Centrifugated at 4,000 rpm for 20 minutes. Then an aliquot of supernatant (50 μL) was transferred from each well to a sample plate and mixed with 100 μL ultrapure water. The plate was shaked at 800 rpm for about 10 minutes before submitting to LC-MS/MS analysis.
Mass spectrometer (LC-MS/MS) Shimadzu LC 20-AD Shimadzu UHPLC API 4000. Analytical column ACQUITY UPLC® BEH Phenyl 1.7 μm 2.1×50 mm. Mobile phase A: 0.1% Formic Acid in Water. Mobile phase B: 0.1% Formic Acid in Acetonitrile. […] Flow rate 0.7 mL/min.

[2] = PK experiments in rats, plasma compound (I) after oral dosing; type: in vivo, Han Wistar rats; conditions: for Observed metabolite, In vivo PK study after oral dosing (rats) / conversion to compound (I) in vivo: oral dosing, rats
Procedure: Plasma was placed on water-ice following collection. Final storage at approximately −70° C.
Mobile phase B: Acetonitrile. […] Flow rate 0.5 mL/min.
The rats had unrestricted access to the diet.
Mobile phase B: Acetonitrile+0.2% formic acid. […] Flow rate 0.3 mL/min.
The rats received a standard laboratory diet Teklad 2014C. The rats had unrestricted access to the diet.

[3] = target: human 5-HT2B receptor (Homo sapiens (Human), UniProt P41595); test: 5-HT2B agonist activity assay (IP1 production, HTRF); type: cell-based; conditions: for activity at 10 µM: read-out: 5-HT2B agonist activity, percent of control response
Sequence of human 5-HT2B receptor (P41595 whole entry): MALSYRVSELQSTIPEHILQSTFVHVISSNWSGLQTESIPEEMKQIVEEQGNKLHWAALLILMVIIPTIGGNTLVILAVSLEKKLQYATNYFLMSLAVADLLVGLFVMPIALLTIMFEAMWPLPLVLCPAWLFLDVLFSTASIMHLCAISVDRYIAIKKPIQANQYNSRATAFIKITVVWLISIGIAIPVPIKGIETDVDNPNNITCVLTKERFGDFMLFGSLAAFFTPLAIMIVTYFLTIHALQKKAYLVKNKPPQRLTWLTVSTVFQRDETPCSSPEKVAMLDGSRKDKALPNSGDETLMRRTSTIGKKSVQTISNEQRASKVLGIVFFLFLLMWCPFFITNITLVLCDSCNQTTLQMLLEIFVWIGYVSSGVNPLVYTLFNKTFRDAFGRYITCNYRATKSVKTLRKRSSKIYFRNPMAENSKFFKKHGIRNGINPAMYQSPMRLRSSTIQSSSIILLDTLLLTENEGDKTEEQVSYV
Procedure: Evaluation of the agonist activity of compounds (I), (Ia), (Ib), (Ic), (Ia-iab), compound (2), compound (9), compound (15), compound (27), A2, A3, and A7 at the human 5-HT2B receptor was performed by Eurofins/Cerep (France) measuring the compound effects on inositol monophosphate (IP1) production using the HTRF detection method. Briefly, the human 5-HT2B receptor was expressed in transfected CHO cells. The cells were suspended in a buffer containing 10 mM Hepes/NaOH (pH 7.4), 4.2 mM KCl, 146 mM NaCl, 1 mM CaCl2, 0.5 mM MgCl2, 5.5 mM glucose and 50 mM LiCl, then distributed in microplates at a density of 4100 cells/well and incubated for 30 minutes at 37° C. in the presence of buffer (basal control), test compound or reference agonist. For stimulated control measurement, separate assay wells contained 1 μM 5-HT. Following incubation, the cells were lysed and the fluorescence acceptor (fluorophen D2-labeled IP1) and fluorescence donor (anti-IP1 antibody labeled with europium cryptate) were added. After 60 minutes at room temperature, the fluorescence transfer was measured at lambda(Ex) 337 nm and lambda(Em) 620 and 665 nm using a microplate reader (Rubystar, BMG). The IP1 concentration was determined by dividing the signal measured at 665 nm by that measured at 620 nm (ratio). The results were expressed as a percent of the control response to 1 μM 5-HT. The standard reference agonist was 5-HT, which was tested in each experiment at several concentrations to generate a concentration-response curve from which its EC50 value is calculated as described above for dopamine functional assays.

SMILES	Observed metabolite, Incubation in human plasma [1]	activity at 10 µM [3] [%]	appearance of compound (I) / conversion in vitro [1]	other results
CCCN1CCC[C@@H]2Cc3c(ccc(O[C@@H]4O[C@H](C(=O)OC)[C@@H](OC(C)=O)[C@H](OC(C)=O)[C@H]4OC(C)=O)c3O)C[C@H]21 [Compound (27), (2S,3R,4S,5S,6S)-2-(((4aR,10aR)-6-hydroxy-1-propyl-1,2,3,4,4a,5,10,10a-octahydrobenzo[g]quinolin-7-yl)oxy)-6-(methoxycarbonyl)tetrahydro-2H-pyran-3,4,5-triyl triacetate]	Compound (Id-ib)	2		Observed metabolite, In vivo PK study after oral dosing (rats) [2]: Compound (I)
CCCN1CCC[C@@H]2Cc3c(ccc(O)c3O[C@@H]3O[C@H](C(=O)OC)[C@@H](OC(=O)C(C)(C)C)[C@H](OC(=O)C(C)(C)C)[C@H]3OC(=O)C(C)(C)C)C[C@H]21 [Compound (26), (2S,3S,4S,5R,6S)-2-(methoxycarbonyl)-6-(((4aR,10aR)-7-hydroxy-1-propyl-1,2,3,4,4a,5,10,10a-octahydrobenzo[g]quinolin-6-yl)oxy)tetrahydro-2H-pyran-3,4,5-triyl tris(2,2-dimethylpropanoate)]	Compound (6)			
CCCN1CCC[C@@H]2Cc3c(ccc(O)c3O[C@@H]3O[C@H](C(=O)OCC)[C@@H](OC(C)=O)[C@H](OC(C)=O)[C@H]3OC(C)=O)C[C@H]21 [Compound (11), (2S,3S,4S,5R,6S)-2-(ethoxycarbonyl)-6-(((4aR,10aR)-7-hydroxy-1-propyl-1,2,3,4,4a,5,10,10a-octahydrobenzo[g]quinolin-6-yl)oxy)tetrahydro-2H-pyran-3,4,5-triyl triacetate]			converted to compound (Id-ia)	
CCCN1CCC[C@@H]2Cc3c(ccc(O)c3O[C@@H]3OC(C(=O)O)=C[C@H](O)[C@H]3O)C[C@H]21 [Compound (9), (2R,3R,4S)-3,4-dihydroxy-2-(((4aR,10aR)-7-hydroxy-1-propyl-1,2,3,4,4a,5,10,10a-octahydrobenzo[g]quinolin-6-yl)oxy)-3,4-dihydro-2H-pyran-6-carboxylic acid]		9	no appearance of compound (I)	conversion to compound (I) in vivo [2]: showed conversion in vivo
CCCN1CCC[C@@H]2Cc3c(ccc(OCc4ccccc4)c3O)C[C@H]21.I [Compound A2, (4aR,10aR)-7-(Benzyloxy)-1-propyl-1,2,3,4,4a,5,10,10a-octahydrobenzo[g]quinolin-6-ol hydroiodide]		30		Observed metabolite, In vivo PK study after oral dosing (rats) [2]: Compound (I)
CCCN1CCC[C@@H]2Cc3c(ccc(O[C@@H]4O[C@H](C(=O)OC)[C@@H](OC(C)=O)[C@H](OC(C)=O)[C@H]4OC(C)=O)c3O[C@@H]3O[C@H](C(=O)OC)[C@@H](OC(C)=O)[C@H](OC(C)=O)[C@H]3OC(C)=O)C[C@H]21 [Compound I2, methyl (2S,3S,4S,5R,6S)-6-[[(4aR,10aR)-1-propyl-6-[(2S,3R,4S,5S,6S)-3,4,5-triacetoxy-6-methoxycarbonyl-tetrahydropyran-2-yl]oxy-3,4,4a,5,10,10a-hexahydro-2H-benzo[g]quinolin-7-yl]oxy]-3,4,5-triacetoxy-tetrahydropyran-2-carboxylate]			no vitro conversion	
CCCN1CCC[C@@H]2Cc3c(ccc(OC(=O)C(C)(C)C)c3OC(=O)C(C)(C)C)C[C@H]21 [(Ic), reference compound]		-5		plasma concentrations of compound (I) after oral dosing (in words) ([2]; oral dosing to Wistar rats): extremely low
CCCN1CCC[C@@H]2Cc3c(ccc(O)c3O[C@@H]3O[C@H](C(=O)OCC)[C@@H](OC(=O)C(C)(C)C)[C@H](OC(=O)C(C)(C)C)[C@H]3OC(=O)C(C)(C)C)C[C@H]21 [Compound (14), (2S,3S,4S,5R,6S)-2-(ethoxycarbonyl)-6-(((4aR,10aR)-7-hydroxy-1-propyl-1,2,3,4,4a,5,10,10a-octahydrobenzo[g]quinolin-6-yl)oxy)tetrahydro-2H-pyran-3,4,5-triyl tris(2,2-dimethylpropanoate)]	Compound (6)			
CCCN1CCC[C@@H]2Cc3c(ccc(OCc4ccccc4)c3O[C@@H]3O[C@H](C(=O)O)[C@@H](O)[C@H](O)[C@H]3O)C[C@H]21 [Compound (4), (2S,3S,4S,5R,6S)-6-(((4aR,10aR)-7-(benzyloxy)-1-propyl-1,2,3,4,4a,5,10,10a-octahydrobenzo[g]quinolin-6-yl)oxy)-3,4,5-trihydroxytetrahydro-2H-pyran-2-carboxylic acid]	Compound A2			
CCCN1CCC[C@@H]2Cc3c(ccc(O)c3O[C@@H]3OC(C(=O)OC)=C[C@H](OC(C)=O)[C@H]3OC(C)=O)C[C@H]21 [Compound (3), (2R,3R,4S)-2-(((4aR,10aR)-7-hydroxy-1-propyl-1,2,3,4,4a,5,10,10a-octahydrobenzo[g]quinolin-6-yl)oxy)-6-(methoxycarbonyl)-3,4-dihydro-2H-pyran-3,4-diyl diacetate]	Compound (9)			
CCCN1CCC[C@@H]2Cc3c(ccc(OC)c3O[C@@H]3O[C@H](C(=O)O)[C@@H](O)[C@H](O)[C@H]3O)C[C@H]21 [Compound (15), (2S,3S,4S,5R,6S)-3,4,5-trihydroxy-6-(((4aR,10aR)-7-methoxy-1-propyl-1,2,3,4,4a,5,10,10a-octahydrobenzo[g]quinolin-6-yl)oxy)tetrahydro-2H-pyran-2-carboxylic acid]		0	no appearance of compound (I)	conversion to compound (I) in vivo [2]: showed conversion in vivo
CCCN1CCC[C@@H]2Cc3c(ccc(O)c3O[C@@H]3O[C@H](C(=O)OC)[C@@H](OC(C)=O)[C@H](OC(C)=O)[C@H]3OC(C)=O)C[C@H]21 [Compound (2), (2S,3R,4S,5S,6S)-2-(((4aR,10aR)-7-hydroxy-1-propyl-1,2,3,4,4a,5,10,10a-octahydrobenzo[g]quinolin-6-yl)oxy)-6-(methoxycarbonyl)tetrahydro-2H-pyran-3,4,5-triyl triacetate]	Compound (Id-ia)	10	no appearance of compound (I)	Observed metabolite, In vivo PK study after oral dosing (rats) [2]: Compound (I); conversion to compound (I) in vivo [2]: showed conversion in vivo
CCCN1CCC[C@@H]2Cc3c(ccc(O[C@@H]4O[C@H](C(=O)OC)[C@@H](OC(C)=O)[C@H](OC(C)=O)[C@H]4OC(C)=O)c3OC(C)=O)C[C@H]21 [Compound A3, (2S,3R,4S,5S,6S)-2-(((4aR,10aR)-6-Acetoxy-1-propyl-1,2,3,4,4a,5,10,10a-octahydrobenzo[g]quinolin-7-yl)oxy)-6-(methoxycarbonyl)tetrahydro-2H-pyran-3,4,5-triyl triacetate]	compound (27)			5-HT2B agonist activity, percent of control response ([3]; @ 10 μM): 3% @ 10 μM

From US12384765B2, “Catecholamine prodrugs for use in the treatment of Parkinson's Disease” (H. Lundbeck A/S, priority 2019, dated 2025)
